PubChem BioAssay AID192 (DTP/NCI, 2004)
Several values for one entry are separate records, joined by “and”; a condition that tells them apart may be missing. Equal values may be shown once. Inconclusive results and toxic doses are left out.

System: BDF1 mice, B16 melanoma ip, median survival T/C
Assay: NCI In Vivo Anticancer Drug Screen. Data for tumor model B16 Melanoma (intraperitoneal) in B6D2F1 (BDF1) mice
Conditions: endpoint: median survival time, higher = longer survival
Method: The antitumor activity of compounds was measured in mice bearing transplantable tumors. Survival or tumor size were measured and the results are expressed as the measurement made in the treated group (T) divided by the measurement made in the vehicle treated control group (C). The tumor model used in this assay is B16 Melanoma (intraperitoneal) in B6D2F1 (BDF1) mice

[1] = dose: 100.0 mg/kg/injection, schedule: Q01DX009 (ip), vehicle: saline with Tween-80
[2] = dose: 200.0 mg/kg/injection, schedule: Q01DX009 (ip), vehicle: saline with Tween-80
[3] = dose: 50.0 mg/kg/injection, schedule: Q01DX009 (ip), vehicle: saline with Tween-80
[4] = dose: 25.0 mg/kg/injection, schedule: Q01DX009 (ip), vehicle: saline with Tween-80
[5] = dose: 100.0 mg/kg/injection, schedule: Q01DX009 (ip), vehicle: Klucel (hydroxypropylcellulose) (HPC)
[6] = dose: 200.0 mg/kg/injection, schedule: Q01DX009 (ip), vehicle: Klucel (hydroxypropylcellulose) (HPC)
[7] = dose: 12.5 mg/kg/injection, schedule: Q01DX009 (ip), vehicle: Klucel (hydroxypropylcellulose) (HPC)
[8] = dose: 25.0 mg/kg/injection, schedule: Q01DX009 (ip), vehicle: Klucel (hydroxypropylcellulose) (HPC)
[9] = dose: 50.0 mg/kg/injection, schedule: Q01DX009 (ip), vehicle: Klucel (hydroxypropylcellulose) (HPC)

`CC12CC3OC(=O)C1COC14OC5(C2C1=O)C(O)(CCC1C4CC(O)C2(O)CC=CC(=O)C12C)C(=O)OC35C` (stereo not given) was tested, and the T/C (dose: 3.0 mg/kg/injection, schedule: Q01DX009 (ip), vehicle: Klucel (hydroxypropylcellulose) (HPC)) was 120 % of control, the T/C (dose: 6.0 mg/kg/injection, schedule: Q01DX009 (ip), vehicle: Klucel (hydroxypropylcellulose) (HPC)) was 98 % of control and 124 % of control and the T/C (dose: 12.0 mg/kg/injection, schedule: Q01DX009 (ip), vehicle: Klucel (hydroxypropylcellulose) (HPC)) was 110 % of control and 118 % of control. The T/C (dose: 24.0 mg/kg/injection, schedule: Q01DX009 (ip), vehicle: Klucel (hydroxypropylcellulose) (HPC)) was 113 % of control and 120 % of control and the T/C (dose: 48.0 mg/kg/injection, schedule: Q01DX009 (ip), vehicle: Klucel (hydroxypropylcellulose) (HPC)) was 120 % of control.
With `C=CCNC(=S)Nc1cc(Cl)ccc1C` the T/C (dose: 50.0 mg/kg/injection, schedule: Q04DX003 (ip), vehicle: Klucel (hydroxypropylcellulose) (HPC)) was 103 % of control and the T/C (dose: 100.0 mg/kg/injection, schedule: Q04DX003 (ip), vehicle: Klucel (hydroxypropylcellulose) (HPC)) was 100 % of control.
For `CCOC(=O)c1ccc(NCC#N)cc1`, the T/C [1] was 94 % of control, the T/C [2] was 97 % of control and the T/C (dose: 400.0 mg/kg/injection, schedule: Q01DX009 (ip), vehicle: saline with Tween-80) was 105 % of control.
With `CC(Br)C(=O)NC(CC(N)=O)C(=O)O` (stereo not given) the T/C [3] was 91 % of control, the T/C [1] was 104 % of control and the T/C [2] was 93 % of control.
In the case of `Cn1c(C[N+](C)(C)C)cc2ccccc21`, the T/C [4] is reported as 97 % of control, the T/C [3] is reported as 94 % of control and the T/C [1] is reported as 86 % of control.
For `Nc1ccccc1SC1CC(=O)N(c2ccccc2Cl)C1=O` (stereo not given), the T/C [5] was 94 % of control and the T/C [6] was 86 % of control.
With `CN1C(=O)C(=Cc2ccc(O)cc2)C(=O)N(C)C1=O` the T/C (dose: 12.5 mg/kg/injection, schedule: Q01DX009 (ip), vehicle: saline with Tween-80) was 101 % of control and the T/C [4] was 97 % of control.
`O=S1(=O)OCc2ccccc21` was tested, and the T/C [7] was 115 % of control, the T/C [8] was 108 % of control and the T/C [9] was 118 % of control.
With `COc1ccc2cc1Oc1ccc(cc1)C[C@H]1c3cc(c(OC)cc3CCN1C)Oc1c(O)c(OC)cc3c1[C@H](C2)N(C)CC3` the T/C (dose: 25.0 mg/kg/injection, schedule: Q01DX009 (ip), vehicle: acid diluted with saline) was 116 % of control and the T/C (dose: 50.0 mg/kg/injection, schedule: Q01DX009 (ip), vehicle: acid diluted with saline) was 105 % of control.
`CC(=O)OCC(OC(C)=O)C(OC(C)=O)C(OC(C)=O)C(C#N)OC(C)=O` (stereo not given) was tested, and the T/C (dose: 100.0 mg/kg/injection, schedule: Q01DX005 (ip), vehicle: saline with Tween-80) was 104 % of control, the T/C (dose: 100.0 mg/kg/injection, schedule: Q04DX003 (ip), vehicle: saline with Tween-80) was 86 % of control and the T/C (dose: 200.0 mg/kg/injection, schedule: Q01DX005 (ip), vehicle: saline with Tween-80) was 100 % of control. For the same compound, the T/C (dose: 200.0 mg/kg/injection, schedule: Q04DX003 (ip), vehicle: saline with Tween-80) was 97 % of control and the T/C (dose: 400.0 mg/kg/injection, schedule: Q01DX005 (ip), vehicle: saline with Tween-80) was 97 % of control.
In the case of `CC1(C)N=C(N)N=C(N)N1c1ccc(OCc2ccc(C(=O)Nc3cccc(S(=O)(=O)F)c3)cc2)c(Cl)c1`, the T/C (dose: 12.5 mg/kg/injection, schedule: Q04DX003 (ip), vehicle: saline with Tween-80) is reported as 119 % of control and the T/C (dose: 50.0 mg/kg/injection, schedule: Q04DX003 (ip), vehicle: saline) is reported as 166 % of control.
In the case of `Nc1nc(SCc2ccccc2)c2ncn(C3CC(O)C(CO)O3)c2n1` (stereo not given), the T/C (dose: 4.25 mg/kg/injection, schedule: Q01DX009 (ip), vehicle: saline) is reported as 111 % of control, the T/C (dose: 8.5 mg/kg/injection, schedule: Q01DX009 (ip), vehicle: saline) is reported as 113 % of control and the T/C (dose: 17.0 mg/kg/injection, schedule: Q01DX009 (ip), vehicle: saline) is reported as 94 % of control. For the same compound, the T/C (dose: 34.0 mg/kg/injection, schedule: Q01DX009 (ip), vehicle: saline) was 93 % of control.
For `O=C1c2ccccc2S(=O)(=O)c2ccc(Br)cc21`, the T/C [5] was 93 % of control, the T/C [6] was 90 % of control and the T/C (dose: 400.0 mg/kg/injection, schedule: Q01DX009 (ip), vehicle: Klucel (hydroxypropylcellulose) (HPC)) was 93 % of control.
In the case of `O=C1c2ccccc2C(=O)N1C[P+](c1ccccc1)(c1ccccc1)c1ccccc1`, the T/C (dose: 6.25 mg/kg/injection, schedule: Q01DX009 (ip), vehicle: water) is reported as 117 % of control, the T/C (dose: 12.5 mg/kg/injection, schedule: Q01DX009 (ip), vehicle: water) is reported as 112 % of control and the T/C (dose: 25.0 mg/kg/injection, schedule: Q01DX009 (ip), vehicle: water) is reported as 123 % of control.
In the case of `COc1cc(-c2ccc(N=Nc3ccc4c(S(=O)(=O)O)cc(S(=O)(=O)O)c(N)c4c3O)c(OC)c2)ccc1N=Nc1ccc2c(S(=O)(=O)O)cc(S(=O)(=O)O)c(N)c2c1O`, the T/C [7] is reported as 88 % of control, the T/C [8] is reported as 97 % of control and the T/C [9] is reported as 102 % of control.
